{"source": "patent EP4729053A1", "about": "“SOLID DISPERSION OF P2X4 INHIBITOR, AND PREPARATION METHOD THEREFOR AND USE THEREOF” (Wuhan Createrna Science and Technology Co.,Ltd., priority 2023, dated 2024)", "key": {"[1]": {"assay": "Solubilization test of compound 1 with surfactants in FaSSIF", "format": "physicochemical", "details": "for Concentration of API in vehicle: FaSSIF (pH 6.5), 37°C", "method": "50 mg of compound 1 was weighed into 5 mL of FaSSIF medium containing 5 mg of different surfactants (target concentration of API (compound 1): 10 mg/mL). The mixture was shaken at 500 rpm and 37°C. 0.5 mL each of the suspension samples was taken at 0.5 hours, 1 hour, 2 hours, and 4 hours, respectively, centrifuged at 14,000 rpm for 5 minutes, and the supernatant was diluted and analyzed by HPLC. Table 1: Solubility results of compound 1 in FaSSIF containing 10% of surfactant by weight"}, "[2]": {"assay": "Pharmacokinetic study in rats, intragastric administration", "format": "in vivo", "details": "rat, plasma, po, Male SD rats, i.g., vehicle 5% Solutol", "method": "SPF-grade male SD rats weighing 160 to 320 g were divided into 2 groups, with 3 rats per group [Source: Beijing Vital River Laboratory Animal Technology Co., Ltd., Certificate No.: 1103242011040898].\nFormulation and dosing: According to the drug concentration and dosing requirements in Table 15 below, the API was accurately weighed and added to the required volume of 5% Solutol. The mixture was vortexed for 2 minutes, then sonicated for 10 minutes, and stirred for 1 hour before administration. Table 15: Formulation and dosing regimen for API pharmacokinetic study\nSPF-grade male SD rats weighing 160 to 320 g were divided into 6 groups, with 3 rats per group [Source: Beijing Vital River Laboratory Animal Technology Co., Ltd., Certificate No.: 110011210113195883 (male)].\nFormulation and dosing: 80 mg of the corresponding sample in the table below was accurately weighed, dispersed in the required volume of pure water, vortexed for 5 minutes, and administered intragastrically (i.g.). The experimental dosing was scaled proportionally based on animal body weight and dosing concentration.\nAfter administration to the SD rats in each group of Experimental Preparation 1 and Experimental Preparation 2, approximately 0.2 to 0.3 mL of blood samples were collected from the orbital venous plexus at 0.167, 0.5, 1, 2, 3, 4, 6, 8, 10, and 24 hours post-dosing, and transferred to an anticoagulant EP tube (containing 4 µL of EDTA-K2, 375 mg/mL), which was gently inverted three times, stored in an ice box (no more than 30 minutes), centrifuged at 3500 × g for 10 minutes at 4°C, and plasma supernatant was transferred to a labeled EP tube. Hemolysis was observed and recorded, followed by bioanalytical testing.\nSample pretreatment: 40 µL of sample was mixed with 160 µL of acetonitrile containing 0.1% FA and 200 ng/mL mixed internal standard to precipitate proteins. The mixture was vortexed thoroughly and centrifuged at 13,000 rpm for 10 minutes at 4°C.\n110 µL of the supernatant was transferred to another 96-well deep-well plate, followed by addition of 110 µL of a mixture of methanol and water (1:3, v:v) containing 0.1% FA. The mixture was shaken for 10 minutes and analyzed using an LC-MS/MS system. The system employed a Sciex Exion LC AD high-performance liquid chromatography system with an XBridge BEH C18 (2.1 × 50 mm, 2.5 µm) column for gradient elution and an AB Sciex Qtrap 4500 mass spectrometer for analysis. The mass spectrometer employed an electrospray ionization (ESI) source in positive ion mode to monitor Tolbutamide, with precursor ion to product ion transitions with mass-to-charge ratios (m/z) of 415.1→263.1 and 271.1→155, respectively.\nData were analyzed using WinNonlin (version 5.2.1, Pharsight, Mountain View, CA) with a non-compartmental model to obtain PK parameters (Cmax, Tmax, T1/2, AUClast, etc.). Table 15: Pharmacokinetic data of some solid dispersions"}}}
{"smiles": "NS(=O)(=O)c1cc(NC(=O)Cc2ccccc2Cl)cc2nn(C(F)F)cc12", "note": "[compound 1]", "values": [{"measurement": "Concentration of API in vehicle", "setting": "[1]; Cremophor EL 5 mg, 0.5 h", "value": 1574.3, "unit": "µg/mL"}, {"measurement": "Concentration of API in vehicle", "setting": "[1]; Cremophor EL 5 mg, 1 h", "value": 1604.3, "unit": "µg/mL"}, {"measurement": "Concentration of API in vehicle", "setting": "[1]; Cremophor EL 5 mg, 2 h", "value": 1538.6, "unit": "µg/mL"}, {"measurement": "Concentration of API in vehicle", "setting": "[1]; Cremophor EL 5 mg, 4 h", "value": 1508.2, "unit": "µg/mL"}, {"measurement": "Concentration of API in vehicle", "setting": "[1]; Cremophor RH40 5 mg, 0.5 h", "value": 1583.3, "unit": "µg/mL"}, {"measurement": "Concentration of API in vehicle", "setting": "[1]; Cremophor RH40 5 mg, 1 h", "value": 1604.5, "unit": "µg/mL"}, {"measurement": "Concentration of API in vehicle", "setting": "[1]; Cremophor RH40 5 mg, 2 h", "value": 1567.0, "unit": "µg/mL"}, {"measurement": "Concentration of API in vehicle", "setting": "[1]; Cremophor RH40 5 mg, 4 h", "value": 1539.4, "unit": "µg/mL"}, {"measurement": "Concentration of API in vehicle", "setting": "[1]; Poloxamer 188 5 mg, 0.5 h", "value": 115.6, "unit": "µg/mL"}, {"measurement": "Concentration of API in vehicle", "setting": "[1]; Poloxamer 188 5 mg, 1 h", "value": 123.3, "unit": "µg/mL"}, {"measurement": "Concentration of API in vehicle", "setting": "[1]; Poloxamer 188 5 mg, 2 h", "value": 104.0, "unit": "µg/mL"}, {"measurement": "Concentration of API in vehicle", "setting": "[1]; Poloxamer 188 5 mg, 4 h", "value": 93.9, "unit": "µg/mL"}, {"measurement": "Concentration of API in vehicle", "setting": "[1]; Poloxamer 407 5 mg, 0.5 h", "value": 838.4, "unit": "µg/mL"}, {"measurement": "Concentration of API in vehicle", "setting": "[1]; Poloxamer 407 5 mg, 1 h", "value": 860.7, "unit": "µg/mL"}, {"measurement": "Concentration of API in vehicle", "setting": "[1]; Poloxamer 407 5 mg, 2 h", "value": 842.0, "unit": "µg/mL"}, {"measurement": "Concentration of API in vehicle", "setting": "[1]; Poloxamer 407 5 mg, 4 h", "value": 796.7, "unit": "µg/mL"}, {"measurement": "Concentration of API in vehicle", "setting": "[1]; SLS 5 mg, 0.5 h", "value": 614.0, "unit": "µg/mL"}, {"measurement": "Concentration of API in vehicle", "setting": "[1]; SLS 5 mg, 1 h", "value": 622.0, "unit": "µg/mL"}, {"measurement": "Concentration of API in vehicle", "setting": "[1]; SLS 5 mg, 2 h", "value": 639.0, "unit": "µg/mL"}, {"measurement": "Concentration of API in vehicle", "setting": "[1]; SLS 5 mg, 4 h", "value": 652.0, "unit": "µg/mL"}, {"measurement": "Concentration of API in vehicle", "setting": "[1]; Solutol HS15 5 mg, 0.5 h", "value": 1465.9, "unit": "µg/mL"}, {"measurement": "Concentration of API in vehicle", "setting": "[1]; Solutol HS15 5 mg, 1 h", "value": 1501.6, "unit": "µg/mL"}, {"measurement": "Concentration of API in vehicle", "setting": "[1]; Solutol HS15 5 mg, 2 h", "value": 1480.7, "unit": "µg/mL"}, {"measurement": "Concentration of API in vehicle", "setting": "[1]; Solutol HS15 5 mg, 4 h", "value": 1456.3, "unit": "µg/mL"}, {"measurement": "Concentration of API in vehicle", "setting": "[1]; Tween 80 5 mg, 0.5 h", "value": 899.3, "unit": "µg/mL"}, {"measurement": "Concentration of API in vehicle", "setting": "[1]; Tween 80 5 mg, 1 h", "value": 893.1, "unit": "µg/mL"}, {"measurement": "Concentration of API in vehicle", "setting": "[1]; Tween 80 5 mg, 2 h", "value": 888.5, "unit": "µg/mL"}, {"measurement": "Concentration of API in vehicle", "setting": "[1]; Tween 80 5 mg, 4 h", "value": 886.6, "unit": "µg/mL"}, {"measurement": "Concentration of API in vehicle", "setting": "[1]; VE-TPGS 5 mg, 0.5 h", "value": 2113.7, "unit": "µg/mL"}, {"measurement": "Concentration of API in vehicle", "setting": "[1]; VE-TPGS 5 mg, 1 h", "value": 2122.7, "unit": "µg/mL"}, {"measurement": "Concentration of API in vehicle", "setting": "[1]; VE-TPGS 5 mg, 2 h", "value": 2089.3, "unit": "µg/mL"}, {"measurement": "Concentration of API in vehicle", "setting": "[1]; VE-TPGS 5 mg, 4 h", "value": 2077.5, "unit": "µg/mL"}, {"measurement": "Concentration of API in vehicle", "setting": "[1]; no surfactant, 0.5 h", "value": 33.9, "unit": "µg/mL"}, {"measurement": "Concentration of API in vehicle", "setting": "[1]; no surfactant, 1 h", "value": 22.9, "unit": "µg/mL"}, {"measurement": "Concentration of API in vehicle", "setting": "[1]; no surfactant, 2 h", "value": 15.2, "unit": "µg/mL"}, {"measurement": "Concentration of API in vehicle", "setting": "[1]; no surfactant, 4 h", "value": 14.9, "unit": "µg/mL"}, {"measurement": "solubility of compound 1", "setting": "[1]; with surfactants SLS, Cremophor EL, Cremophor RH40, VE-TPGS, Tween 80, Poloxamer 407, and Solutol HS15", "value": "significantly improved"}, {"measurement": "AUC(0-t)", "setting": "[2]; 30.00 mg/kg", "value": 10800, "unit": "ng·h/mL"}, {"measurement": "Cmax", "setting": "[2]; 30.00 mg/kg", "value": 2.76, "unit": "µg/mL"}, {"measurement": "Tmax", "setting": "[2]; 30.00 mg/kg", "value": 0.67, "unit": "h"}, {"measurement": "half-life", "setting": "[2]; 30.00 mg/kg", "value": 5.31, "unit": "h"}, {"measurement": "AUC(0-t)", "setting": "[2]; 300.00 mg/kg", "value": 14700, "unit": "ng·h/mL"}, {"measurement": "Cmax", "setting": "[2]; 300.00 mg/kg", "value": 2.36, "unit": "µg/mL"}, {"measurement": "Tmax", "setting": "[2]; 300.00 mg/kg", "value": 1, "unit": "h"}, {"measurement": "half-life", "setting": "[2]; 300.00 mg/kg", "value": 13.8, "unit": "h"}]}
